Experimental data as given in PubChem BioAssay AID1996.
Converted amounts (≈) assume the structure as drawn.

Details: buffer; pH 7.4; 200.0 µM

SMILES	solubility kinetic [µg/mL]
Cc1ccc(NC(=O)COC(=O)c2ccc(NC(=O)CC#N)cc2)cc1S(=O)(=O)N1CCOCC1	23.6 (≈ 47.1 µM)
Cc1cnc(C(=O)NC(C)CCc2ccccc2)cn1 (stereo not given)	> 40.4
CCCCOC(=O)Nc1ccc(S(=O)(=O)Nc2nccs2)cc1	38.1 (≈ 107 µM)
Cc1ccccc1/C=C\c1nc2ccccc2c(=O)[nH]1	1.2 (≈ 4.57 µM)
O=C(c1ccccc1)C(O)C(c1ccccc1)N1CCOCC1 (stereo not given)	> 46.7
Clc1ccc(OCCN2CCOCC2)cc1	28.7 (≈ 119 µM)
COc1ccc(-c2noc(CNC(=O)c3ccoc3C)n2)cc1	37.8 (≈ 121 µM)
CC(NC(=O)/C(C#N)=C/c1ccco1)c1ccccc1 (stereo not given)	38.8 (≈ 146 µM)
CCNC(=O)COc1cc(C)c(Br)c(C)c1	> 42.9
O=C(CNc1cccc(F)c1)N1CCc2ccccc2C1	8.4 (≈ 29.5 µM)
CN(C)C(=O)CSc1nnc(Cc2ccc3c(c2)OCO3)o1	> 48.2
O=C1c2ccccc2C(=O)N1CC(O)COc1ccccc1Cl (stereo not given)	44 (≈ 133 µM)
Nc1cc(=O)[nH]c(=O)n1CCc1ccccc1	> 34.7
Cc1cc(C)nc(SCC(=O)OCC(=O)Nc2ccccc2)n1	> 49.7
COc1ccc(C)c(NC(=O)C2CC(=O)NC3=C2C(=O)CCC3)c1 (stereo not given)	47.5 (≈ 145 µM)
COc1ccc(C(=O)N2C[C@H]3C[C@@H](C2)c2cccc(=O)n2C3)cc1OC	> 53.2
O=C(Cc1ccc(Cl)c(Cl)c1)NC1CCCCCC1	3.2 (≈ 10.7 µM)
COc1cccc2cc(-c3ccnc(N)n3)oc12	2.6 (≈ 10.8 µM)
CCSc1ncc(Cl)c(C(=O)Nc2ccccc2OC)n1	< 0.2
COc1ccc(Nc2ccc([N+](=O)[O-])cc2[N+](=O)[O-])cc1	1.5 (≈ 5.19 µM)

SMILES	solubility kinetic [µg/mL]
Cn1c(-c2ccccc2)cc2ccccc21	0.6 (≈ 2.89 µM)
Cc1ccc(F)cc1NC(=O)CSc1ncccn1	> 41.6
Cc1ccnc(NC(=O)c2cccc(NC(=O)c3ccccc3C)c2)c1	2.1 (≈ 6.08 µM)
COc1cc(NC(=O)CN2C(=O)CN(C)C2=O)c(C)cc1[N+](=O)[O-]	> 50.4
O=C(NCCCn1ccnc1)c1ccccc1Br	> 46.2
N#Cc1ccccc1S(=O)(=O)N1CCN(C(=O)C2CCCC2)CC1	> 52.1
COc1ccccc1-n1c(-c2ccccc2Cl)nc2ccccc2c1=O	36.2 (≈ 99.8 µM)
N#Cc1c(Nc2ccccc2)s[nH]c1=O	> 32.6
O=C(c1cc(F)c(F)cc1Cl)N1CCN(c2ncccn2)CC1	49.3 (≈ 146 µM)
Cc1cc(NC(=O)CSCC(=O)N2CCN(c3ccccc3)CC2)no1	> 56.2
O=S(=O)(c1ccccc1)N1CCN(c2ccccc2)CC1	0.4 (≈ 1.32 µM)
CCOc1ccc(C(=O)CCC(=O)Nc2ccncc2)cc1	42.9 (≈ 144 µM)
O=Cc1c(F)cccc1N1CCCC1	15.3 (≈ 79.2 µM)
CN(Cc1ccccc1)C(=O)N1CCOCC1	> 35.1
Cc1cc(NC(=O)c2cc(-c3ccc(O)cc3)on2)no1	0.5 (≈ 1.75 µM)
COc1ccccc1N1CCN(Cc2cnc(-c3ccccc3)[nH]2)CC1	15.1 (≈ 43.3 µM)
COc1ccc(C)cc1NC(=O)CC(NC(C)=O)c1ccccc1 (stereo not given)	> 49
O=C(O)C(=O)O.c1ccc2c(c1)CCN(C1CCCCC1)C2	44
Cc1ccc(C(=O)Oc2ccc(N3C(=O)CCC3=O)c(C)c2)cc1	< 0.7
O=C(c1ncc[nH]1)c1cccs1	> 26.7

SMILES	solubility kinetic [µg/mL]
COC(=O)c1sccc1NC(=O)Nc1cccc(C)c1C	8.1 (≈ 26.6 µM)
NC1=NC(=O)/C(=C/C=C/c2cccs2)S1	5.9 (≈ 25 µM)
CCCNc1nc(Cl)nc(NC(C)(C)C)n1	17.1 (≈ 70.2 µM)
CC(=O)N1CCN(CC(c2ccccc2)c2ccccc2)CC1	38.7 (≈ 125 µM)
Cc1ccc(S(=O)(=O)NCc2ccccc2)cc1C(=O)NCc1ccccn1	48.1 (≈ 122 µM)
Cc1ccccc1Cn1cc(C)c(=O)[nH]c1=O	29.5 (≈ 128 µM)
O=C(Nc1ccc2[nH]ccc2c1)c1ccc(F)cc1	> 38.1
O=c1cc(-c2ccccc2)nc(SCCOc2ccccc2Cl)[nH]1	0.4 (≈ 1.11 µM)
COc1cccc(NC(=O)C2C3C=CC(C3)C2C(=O)O)c1 (stereo not given)	27.1 (≈ 94.3 µM)
CN1CCN(c2nc(-c3ccccc3O)nc3ccccc23)CC1	1 (≈ 3.12 µM)
O=C(NCCN1CCOCC1)c1cc2ccccc2oc1=O	> 45.3
CN(C(=S)NC(=O)C1CC1)c1ccc(O)cc1	> 37.5
Cc1csc(NC(=O)CSc2nccn2C)n1	> 40.3
CSc1ccccc1C(=O)OCC(=O)N1CCCCCC1	> 46.1
COC(=O)c1ccc(C(=O)Nc2nc3cc(N)c(C)cc3s2)cc1	< 0.2
COc1ccc(CC(=O)Nc2ccc(OC)nc2)cc1	> 40.8
CC(=O)Nc1ccc(Nc2nc(C)cc(C)n2)cc1	> 38.4
COc1ccccc1NC(=O)Nc1ccc(C)cn1	0.8 (≈ 3.11 µM)
CCSc1nc2sc3c(c2c(=O)n1-c1ccc(C)cc1)CCN(C)C3	35.6 (≈ 95.8 µM)
Cc1ccc(C(=O)O/N=C(\N)Cc2ccc([N+](=O)[O-])cc2)c(Cl)c1	3.9 (≈ 11.2 µM)
